Laboratory results from article PMC8805583, “Discovery of Herbacetin as a Novel SGK1 Inhibitor to Alleviate Myocardial Hypertrophy” (Advanced Science, 2021).

How the values were obtained:
[1] = molecular target: T1, Rho-associated protein kinas-1 (ROCK-I) (Homo sapiens, UniProt Q13464); experiment: KinaseProfiler Assay, AGC kinase panel; format: biochemical; conditions: HBT 10 µmol
T1 construct: purchased Eurofins Discovery (KinaseProfiler Service)
Excerpt: (§1) 20 structurally related flavonoids of HBT were collected, which differ in the number and position of —OH groups, and examined for their effects on SGK1 activity. Based on the docking prediction, the —OH group at the C‐4’ position of HBT was required for the interaction with the key SGK1 residue D177. Therefore, the 20 flavonoids were divided into two classes according to the presence or absence of an —OH group at C‐4’ (Figure 4B). At both tested concentrations, flavonoids with an —OH group at C‐4’ (class A) inhibited SGK1 more than those without an —OH group at C‐4’ (class B) (Figure 4C). The IC50 of each compound is listed in Figure 4D; and Figure S6 (Supporting Information). […] Conversely, the absence of an ‐OH group at C‐8 led to a greater than 10‐fold reduction in flavonoid SGK1 inhibitory activity, as shown by the performance of A1 or A4. […] The inhibitory activity of HBT (10 µmol) against 28 human AGC kinases was tested by KinaseProfiler Assay (Eurofins Discovery). The percentage of HBT's inhibitory activity against each kinase was normalized by the respective positive inhibitors of AGC kinases.
(§2) The initial crystal structures of SGK1 (PDB entry: 3HDN, 3HDM, and 2R5T) were obtained from the Protein Data Bank (PDB). The prepared inhibitors were then docked by Glide with the extra precision (XP) scoring mode to estimate the binding affinity for each protein–ligand complex. The detailed process of docking has been described previously.^[ [46] ^] HEK293T cells were transfected with SGK1 mutant plasmids. After 24 h, cells were lysed and immunoprecipitated with anti‐FLAG antibody and beads. Immune complexes were washed with kinase buffer and incubated in kinase buffer with substrate peptide for 1 h at 30 ℃ followed by LC/MS measurement as described above. KINOMEscan Profiling Service and KinaseProfiler Service Assay were provided by Eurofins Discovery.

[2] = molecular target: T2, SGK2 (Homo sapiens, UniProt Q9HBY8); experiment: KinaseProfiler Assay, AGC kinase panel; format: biochemical; conditions: HBT 10 µmol; normalized by positive inhibitors
T2 construct: purchased Eurofins Discovery (KinaseProfiler Service)
T2 sequence (Q9HBY8 1-367): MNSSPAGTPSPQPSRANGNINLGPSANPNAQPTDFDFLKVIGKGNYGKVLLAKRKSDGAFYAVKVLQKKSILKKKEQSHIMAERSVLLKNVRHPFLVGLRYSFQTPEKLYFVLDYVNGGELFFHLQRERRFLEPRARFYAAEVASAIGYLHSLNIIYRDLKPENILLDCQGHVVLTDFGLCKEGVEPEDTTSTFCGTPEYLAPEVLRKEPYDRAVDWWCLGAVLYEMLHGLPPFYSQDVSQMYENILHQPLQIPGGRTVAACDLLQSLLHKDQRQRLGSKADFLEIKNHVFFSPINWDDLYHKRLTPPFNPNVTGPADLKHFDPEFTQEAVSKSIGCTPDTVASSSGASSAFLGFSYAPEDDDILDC
Excerpt: as §1, §2

[3] = molecular target: T3, SGK1 (Homo sapiens, UniProt O00141); experiment: KinaseProfiler Assay, AGC kinase panel; format: biochemical; set-up: purchased Eurofins Discovery (KinaseProfiler Service); conditions: HBT 10 µmol; normalized by positive inhibitors
T3 sequence (O00141 1-431): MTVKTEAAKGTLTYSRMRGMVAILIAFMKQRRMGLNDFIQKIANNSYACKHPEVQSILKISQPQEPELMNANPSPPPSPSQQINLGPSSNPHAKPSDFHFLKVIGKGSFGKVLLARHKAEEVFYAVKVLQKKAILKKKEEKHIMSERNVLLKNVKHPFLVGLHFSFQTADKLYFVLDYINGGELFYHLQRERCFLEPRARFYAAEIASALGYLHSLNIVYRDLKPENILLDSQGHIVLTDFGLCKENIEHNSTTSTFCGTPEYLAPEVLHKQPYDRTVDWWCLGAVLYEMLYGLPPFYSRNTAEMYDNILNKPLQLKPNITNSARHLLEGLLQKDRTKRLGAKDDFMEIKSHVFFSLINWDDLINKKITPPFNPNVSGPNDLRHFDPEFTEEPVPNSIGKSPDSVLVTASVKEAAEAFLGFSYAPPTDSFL
Excerpt: as §1
The initial crystal structures of SGK1 (PDB entry: 3HDN, 3HDM, and 2R5T) were obtained from the Protein Data Bank (PDB). The prepared inhibitors were then docked by Glide with the extra precision (XP) scoring mode to estimate the binding affinity for each protein–ligand complex. […]

[4] = molecular target: T4, SGK1-FoxO1 interaction (Rattus norvegicus, UniProt Q06226); experiment: Co-immunoprecipitation of SGK1 and FoxO1 in cardiomyocytes; format: cell-based; conditions: coimmunoprecipitation
T4 construct: endogenous in cells; host or cells: primary neonatal rat cardiomyocytes
T4 sequence (Q06226 1-430): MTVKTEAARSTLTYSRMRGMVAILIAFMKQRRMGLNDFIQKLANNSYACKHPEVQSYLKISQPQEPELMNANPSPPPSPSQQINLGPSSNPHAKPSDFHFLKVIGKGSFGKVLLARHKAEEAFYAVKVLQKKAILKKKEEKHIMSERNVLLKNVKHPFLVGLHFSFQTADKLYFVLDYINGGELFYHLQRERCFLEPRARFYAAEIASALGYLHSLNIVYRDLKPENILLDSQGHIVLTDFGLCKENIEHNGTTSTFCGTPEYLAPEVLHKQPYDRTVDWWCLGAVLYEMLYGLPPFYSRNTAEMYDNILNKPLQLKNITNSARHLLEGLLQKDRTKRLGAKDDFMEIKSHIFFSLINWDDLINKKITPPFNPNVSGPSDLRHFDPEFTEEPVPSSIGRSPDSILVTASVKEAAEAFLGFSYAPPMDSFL
Description: In the present study, we studied HBT's effect on protein binding between SGK1 and FoxO1 by coimmunoprecipitation (Figure 5E). […] Nevertheless, as previously reported,^[ [30] ^] […] Supportively, after transfection with the SGK1(S422D) plasmid, we consistently detected increased cytoplasmic signal of FoxO1 compared to nontransfected cells in which the majority of FoxO1 signal was distributed in the nucleus.
For the endogenous interaction assay, cardiomyocytes were treated with HBT or vehicle. After 24 h, cells were lysed with cell lysis buffer contained PMSF (Phenylmethylsulfonyl fluoride, a protease inhibitor). Protein extracts were harvested and immunoprecipitated with anti‐SGK1 or anti‐IgG antibody and protein A/G beads, and then measured by western blotting analysis.

T1 sequence (Q13464 whole entry): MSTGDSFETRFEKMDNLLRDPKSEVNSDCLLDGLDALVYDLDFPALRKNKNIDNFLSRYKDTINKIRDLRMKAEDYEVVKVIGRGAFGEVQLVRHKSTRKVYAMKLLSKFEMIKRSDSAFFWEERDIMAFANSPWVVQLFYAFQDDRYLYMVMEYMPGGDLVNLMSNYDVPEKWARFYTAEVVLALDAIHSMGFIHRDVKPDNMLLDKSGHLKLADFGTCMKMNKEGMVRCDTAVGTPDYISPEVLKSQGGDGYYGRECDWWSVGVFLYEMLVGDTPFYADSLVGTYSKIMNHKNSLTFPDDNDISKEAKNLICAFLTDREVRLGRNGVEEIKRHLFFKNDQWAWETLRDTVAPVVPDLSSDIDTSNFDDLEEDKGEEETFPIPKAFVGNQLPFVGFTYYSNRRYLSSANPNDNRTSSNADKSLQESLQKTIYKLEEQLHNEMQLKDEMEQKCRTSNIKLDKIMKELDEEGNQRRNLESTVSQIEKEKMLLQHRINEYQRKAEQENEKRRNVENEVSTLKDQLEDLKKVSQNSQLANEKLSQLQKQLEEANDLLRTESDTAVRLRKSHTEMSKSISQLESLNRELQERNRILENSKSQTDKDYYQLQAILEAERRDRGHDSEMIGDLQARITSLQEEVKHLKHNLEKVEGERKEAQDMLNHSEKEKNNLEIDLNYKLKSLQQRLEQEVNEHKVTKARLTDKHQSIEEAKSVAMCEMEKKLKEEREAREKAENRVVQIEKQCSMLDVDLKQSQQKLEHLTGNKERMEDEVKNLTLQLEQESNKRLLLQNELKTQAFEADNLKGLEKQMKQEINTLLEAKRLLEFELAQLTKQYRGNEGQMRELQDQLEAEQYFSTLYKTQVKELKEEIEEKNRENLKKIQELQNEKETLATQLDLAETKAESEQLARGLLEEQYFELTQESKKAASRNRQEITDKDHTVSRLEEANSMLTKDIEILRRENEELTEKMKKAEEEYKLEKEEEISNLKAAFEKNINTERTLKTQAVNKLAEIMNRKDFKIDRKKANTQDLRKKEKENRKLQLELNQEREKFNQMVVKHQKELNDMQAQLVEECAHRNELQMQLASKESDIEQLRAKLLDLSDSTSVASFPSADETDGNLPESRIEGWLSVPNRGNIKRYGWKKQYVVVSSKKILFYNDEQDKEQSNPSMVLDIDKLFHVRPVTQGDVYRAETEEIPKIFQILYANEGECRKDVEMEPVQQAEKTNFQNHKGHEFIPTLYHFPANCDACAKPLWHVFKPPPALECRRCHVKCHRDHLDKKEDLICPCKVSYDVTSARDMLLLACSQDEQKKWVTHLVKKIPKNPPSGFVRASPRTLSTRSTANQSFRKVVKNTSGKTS

In the case of `O=c1c(O)c(-c2ccc(O)cc2)oc2c(O)c(O)cc(O)c12` [HBT, herbacetin], the “inhibitory effect on ROCK-I” value [1] is reported as “high inhibitory effects”, the “inhibitory activity on SGK2” value [2] is reported as 105% and the “inhibitory activity on SGK1” value [3] is reported as 95%. For the same compound, the “direct binding between SGK1 and FoxO1” value [4] was “did not detect significant impact”.
